These results are taken from patent US4482722A, “Ester of metronidazole with N,N-dimethylglycine and acid addition salt thereof” (A/S Dumex (Dumex Ltd.), priority 1982, dated 1984).

Data set [1] is described as follows: Hydrolysis to metronidazole in human plasma (in vitro). The class given is in vitro ADME.
Data set [2] is described as follows: Hydrolysis to metronidazole in 0.05M phosphate buffer pH 7.4. The conditions noted are these: pH 7.4, 37° C, read-out: t1/2 in buffer. The class given is physicochemical.
The conditions of data set [3]: cited from earlier work.
For data set [4] the following is noted: after parenteral administration; cited from earlier work.
The conditions of data set [5]: compound itself (uncleaved ester); cited from earlier work.
Data set [6] is described as follows: Intravenous cross-over study in two beagle dogs, plasma concentrations of ester, metronidazole and metabolites. The class given is in vivo. From the text:
(§1) To test the assumption that the N,N-dimethylglycine ester would be a suitable water-soluble prodrug of metronidazole for parenteral administration, metronidazole and its N,N-dimethylglycine ester were given intravenously to two beagle dogs in a cross-over study.

A short description of data set [7]: Solubility in water / aqueous solution. The class given is physicochemical.
Data set [8] in a line: pH of aqueous solutions of the hydrochloride. The class given is physicochemical. The conditions noted are these: 1-20% w/v aqueous solutions.
Data set [9] is described as follows: Initial rate of formation of metronidazole and time to begin precipitation, calculated at 23° C (Table 2). The class given is physicochemical. Here is the method: Since t10% for the ester is 73 h at 23° C., the results given in Table 2 indicate that the stability of aqueous solutions of the prodrug ester will only be limited by the potential precipitation of metronidazole formed upon hydrolysis in those cases where the concentration of the ester in aqueous solutions exceeds about 20%.

A short description of data set [10]: Local tolerance after intravenous injection in dogs. The class given is in vivo, beagle dogs.
From the text: as §1

Data set [11] is described as follows: Effect of temperature on rate of hydrolysis in acetate buffer pH 4.4 (Arrhenius plot). The class given is physicochemical. Here is the method:
The effect of temperature on the rate of hydrolysis of metronidazole N,N-dimethylglycinate was studied in 0.05M acetate buffer of pH 4.4 over the temperature range 23°-50° C.
The results obtained are illustrated in FIG. 1 of the drawings. […] Based on the slope of said plot an activation energy of 17.7 kcal mole^-1 was calculated. Based on said Arrhenius type plot the stability of aqueous solutions of the ester may be predicted at various temperatures.

The nature of data set [12]: Hydrolysis in 80% dog plasma in vitro. The class given is in vitro ADME. Conditions: 80% plasma, 37° C. From the text: As noted below the rapid and quantitative formation of metronidazole seen after administration of the ester indicate, however, that the rate of ester disappearance is solely or predominantly due to the hydrolytic conversion.
For data set [13] the following is noted: published data; cited from earlier work.
For data set [14] the following is noted: compared with metronidazole at the same dosage level; cited from earlier work.
Setting [15] is: 80% plasma, 80% human plasma, pH 7.4, 37° C, read-out: t1/2 in human plasma.

Where “and” joins values, the source holds several entries; their conditions need not be identical. Identical values can stand only once. Counter-ions that a name gives are not always drawn. Like-named read-outs stand apart in the source and are kept apart here.

Take `Cc1ncc([N+](=O)[O-])n1CCOC(=O)CCN`: the half-life in [1] (setting [15]) amounted to 3.45 h; in [2], 5.25 h.

As to `Cc1ncc([N+](=O)[O-])n1CCOC(=O)CCN(C)C`, the half-life in data set [1] (setting [15]) came to 0.767 h; in data set [2], 0.867 h.

For `Cc1ncc([N+](=O)[O-])n1CCOC(=O)CCCN(C)C`, the half-life came out at 5.57 h in [1] (setting [15]) and 9.67 h in [2].

As for `Cc1ncc([N+](=O)[O-])n1CCOC(=O)CCC(=O)O`, in data set [3] (prior art esters), the “solubility in water (in words)” value was “has the required solubility in water”. In addition, the “cleavage of the ester in blood serum (in words)” value in [4] is reported as “very slow”. In data set [5], the “microbiological activity (in words)” value is “microbiologically inactive”.

As for `Cc1ncc([N+](=O)[O-])n1CC(=O)O` [2-Methyl-5-nitroimidazole-1-aceticacid], in data set [6] (dogs, i.v. ester hydrochloride (30 mg/kg metronidazole equivalents) or metronidazole (10 mg/kg)), the “plasma concentration of metabolite (in words)” value is reported as “could not be detected in measurable concentrations”.

For `Cc1ncc([N+](=O)[O-])n1CCOC(=O)CN1CCN(C)CC1` [4-Methyl-1-piperazinoacetate], the half-life in data set [1] (setting [15]) was determined as 8.72 h; in data set [2] it was 28.7 h.

With `Cc1ncc([N+](=O)[O-])n1CCOC(=O)CN` [Glycinate], the half-life in data set [1] (setting [15]) came out at 0.683 h; in data set [2] it was 1.92 h.

For the compound `Cc1ncc([N+](=O)[O-])n1CCOC(=O)CN(C)C` [Metronidazole N,N-dimethylglycinate hydrochloride], in [7] (water, 20° C, read-out: solubility in water), the solubility is > 500000 µg/mL and > 1.7e+06 µM. Besides, in [8], the “pH of the 1-20% w/v solutions” value is given as 4.4-4.6. Also, the “(d[M]/dt)i, apparent zero-order initial rate of formation of metronidazole” value in data set [9] (50 mg ml^-1 hydrochloride) is 0.042 mg/mL/h; in data set [9] (100 mg ml^-1 hydrochloride), 0.084 mg/mL/h; in [9] (200 mg ml^-1 hydrochloride), 0.168 mg/mL/h; in [9] (300 mg ml^-1 hydrochloride), 0.252 mg/mL/h. Moreover, the “tpt, time for metronidazole to begin precipitation” value in data set [9] (50 mg ml^-1 hydrochloride) is on record as 238 h; in data set [9] (100 mg ml^-1 hydrochloride), 119 h; in data set [9] (200 mg ml^-1 hydrochloride), 60 h; in [9] (300 mg ml^-1 hydrochloride) it was 40 h. Further, the “conversion to metronidazole (in words)” value in [6] (i.v., dogs) is “rapidly and completely converted to metronidazole”. For the same compound, the “signs of pain or local toxicity” value in [10] is listed as “No signs of pain or local toxicity”.

For `CCCNCC(=O)OCCn1c([N+](=O)[O-])cnc1C` [N--Propylglycinate], the results for the half-life in [1] (setting [15]) and in [2] were 0.133 h and 1.5 h, respectively.

Consider `Cc1ncc([N+](=O)[O-])n1CCOC(=O)CN(C)C` [metronidazole N,N-dimethylglycinate], for which the half-life in [1] (setting [15]) was 0.2 h; in data set [1] (human plasma or blood, in vitro, read-out: half-life of hydrolysis in human plasma or blood), 0.15 to 0.2 h; in [2], 4.17 h; in data set [12] it was 0.417 h. In addition, the “activation energy of hydrolysis” value in data set [11] (0.05M acetate buffer pH 4.4, 23°-50° C, Arrhenius plot) turned out to be 17.7 kcal/mol. For the same compound, the “t10% (time in which 10% of the ester is degraded)” value in data set [11] (pH 4.4, 4° C) is 576 h; in data set [11] (pH 4.4, 15° C), 166 h; in data set [11] (pH 4.4, 23° C) it was 73 h. Also, in [6] (i.v. hydrochloride, 30 mg/kg metronidazole equivalents, one value per dog, 30 mg/kg), the “half-life of disappearance of the ester in dogs” value is “approximately 3 min and ~7 min”. Besides, the “hydrolysis in the dogs (in words)” value in data set [6] (i.v., 30 mg/kg metronidazole equivalents) is on record as “hydrolyzed rapidly”. For the same compound, the “pattern of metabolite formation (in words)” value in [6] (i.v., dogs, compared with injection of metronidazole) is reported as “quite similar to that observed after injection of metronidazole”.

With `Cc1ncc([N+](=O)[O-])n1CCO` [metronidazole], the solubility in data set [7] (aqueous solution, pH>3, 25° C, read-out: solubility in aqueous solutions) was 10000 µg/mL and 58000 µM. Besides, the “solubility in an aqueous solution” value in data set [3] (background statement) was “about 100 mg/10 ml”. Also, the “solubility augmented by solubilizers” value in data set [3] (with gentisic acid (1:4) or with co-solvents (prior art)) is given as 500-650 mg/10 ml.

In the case of `Cc1ncc([N+](=O)[O-])n1CCOP(=O)(O)O` [phosphate ester], the “rate of conversion to metronidazole in vivo (in words)” value in data set [13] was “rather slow rate of conversion to metronidazole in vivo”. The “bioavailability of metronidazole to rats (in words)” value in data set [14] was “significantly lower than that obtained with metronidazole at the same dosage level”.

For orientation: solubility means the dissolved amount per volume that the medium holds.
